Results published in patent US20260306502A1, “MITOCHONDRIAL UNCOUPLERS FOR TREATMENT OF METABOLIC DISEASES AND CANCER” (Mito Biopharma, LLC, priority 2022, published 2026).

Tested on: TGF-β signaling pathway
Assay: TGF-β signaling pathway activation (Smad2/3 phosphorylation) in T cells (Jurkat, primary mouse CD8+), immunoblotting
Type: cell-based, human Jurkat cells and mouse primary T-cells
Details: Jurkat and mouse primary T-cells, 6 hours, FIG. 19
Procedure: Jurkat cells (a human T-cell cancer cell line) and the primary mouse CD8+ cells (T-cells) were tested. The cells were treated with TGF-β (10 ng/ml) alone, or TGF-β (10 ng/ml) plus compound at various concentrations (e.g. 0.5, 1.0, 2.0 μM), or treated with vehicle (control), for 6 hours. The cells were then harvested, and cell lysates were subjected to immunoblotting analyses with antibodies against Smad2/3, phosphorylated Smad2/3, and GAPDH.

Compound: COCCOCc1cc(C(F)(F)F)cc2sc(NC(=O)c3cc(Cl)cc(CN4C[C@@H](C)O[C@@H](C)C4)c3O)nc12 [Compound 64, 5-chloro-3-((cis-2,6-dimethylmorpholino)methyl)-2-hydroxy-N-(4-((2-methoxyethoxy)methyl)-6-(trifluoromethyl)benzo[d]thiazol-2-yl)benzamide]
- effect on TGF-β signaling pathway activation in T cells: effectively blocks TGF-β signaling pathway activation in T cells
